For data set [1] the following is noted: humans; cited from earlier work.
For data set [2], the target named is hCE1 (Homo sapiens, UniProt P23141).
Method: A 62 kDa C-terminally-truncated form of human carboxylesterase 1 (hCE1; SEQ ID NO: 4) that lacks six C-terminal amino acids, allowing secretion of the expressed enzyme (baculovirus in Spodoptera frugiperda Sf21 cells) into the culture media, was employed. hCE1 was purified by preparative isoelectric focusing and size exclusion chromatography (BIO-GEL® P-100, Bio-Rad, Laboratories, Hercules, Calif.) from protein-free culture media. Purified hCE1 was concentrated to 5 mg ml^−1 in 20 mM HEPES pH 7.4, and crystallized in the presence of either 10 mM tacrine or 100 mM homatropine. […]
Diffraction data were collected at Stanford Synchrotron Radiation Laboratory (SSRL) beamline 9-1, and were processed and reduced using MOSFILM (Leslie, (1992), Joint CCP4+ESF-EAMCB Newsletter on Protein Crystallography, No. 26.). […] The structures of hCE1 were determined by molecular replacement using the structure of rabbit carboxylesterase (rCE; RCSB Protein ID No. 1K4Y; Bencharit et al., (2002) Nat.Struct.Biol. 9: 337), also an aspect of the present invention, as a search model (81% sequence identity). […] Manual adjustments and rebuilding were performed using the program O (Jones et al., (1991) Acta Crystallogr. A 47: 110-119) and σA-weighted electron density maps (Read, (1986) Acta Crystallogr. A 42: 140-149). […]
Data set [3] deals with T1, wild type rCE (Oryctolagus cuniculus, UniProt P12337).
T1 construct: made in house; host or cells: Spodoptera frugiperda Sf21 cells, baculovirus, secreted into the medium
T1 sequence (P12337 19-559 limits assumed): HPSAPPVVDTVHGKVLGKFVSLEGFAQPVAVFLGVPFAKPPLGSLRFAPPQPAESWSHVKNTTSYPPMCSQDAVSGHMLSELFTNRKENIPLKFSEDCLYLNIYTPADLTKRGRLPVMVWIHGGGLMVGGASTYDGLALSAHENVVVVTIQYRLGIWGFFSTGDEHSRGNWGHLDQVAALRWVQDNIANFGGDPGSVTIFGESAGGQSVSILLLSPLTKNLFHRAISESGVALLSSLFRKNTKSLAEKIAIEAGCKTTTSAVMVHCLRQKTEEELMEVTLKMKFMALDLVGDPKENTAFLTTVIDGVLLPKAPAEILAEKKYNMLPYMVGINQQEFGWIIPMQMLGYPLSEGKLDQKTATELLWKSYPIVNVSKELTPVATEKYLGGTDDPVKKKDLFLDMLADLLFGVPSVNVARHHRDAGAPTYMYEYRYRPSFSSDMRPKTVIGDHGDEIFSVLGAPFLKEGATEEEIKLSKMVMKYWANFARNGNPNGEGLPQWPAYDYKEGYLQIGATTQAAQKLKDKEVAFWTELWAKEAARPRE
Put plainly: CD thermal denaturation of wild type rCE in the presence of 4PP. The format is binding, rabbit. The conditions noted are these: 1 mM βME. As to the method:
(§1) Experiments were conducted by monitoring rCE denaturation in an Applied Photophysics PISTAR-180™ CD spectropolarimeter (Applied Photophysics, Surrey, United Kingdom). Deglycosylated rCE was generated by an 18-hour treatment with 0.25 μM PNGase F (Hampton Research, Laguna Niguel, Calif., United States of America) at 37° C., which cleaves the complete high-mannose glycosyl group. Removal of the carbohydrate chains was confirmed by SDS-PAGE. Wild type protein was also heated to 37° C. for 18 hours before CD experiments. Wild type or deglycosylated rCE (0.15 mg ml^−1 (2.5 μM); in 10 mM phosphate buffer, pH 7.0, and 1 mM fresh beta-mercaptoethanol (βME) to eliminate the stabilizing effect of disulfide linkages) was treated with no 4PP or with 0.016 mM, 0.16 mM, 1.6 mM or 10 mM 4PP. The temperature was increased from 20 to 98° C. while monitoring the ellipticity at 222 nm. […]
(§2) To confirm the significance of the 4PP bound to the surface of rCE, thermal denaturation studies were performed using CD on both wild type and deglycosylated rCE. […] In the presence of fresh reducing agent (1 mM β-mercaptoethanol (βME)), thermal denaturation of wild type and deglycosylated rCE was monitored alone and in the presence of 10-(0.016 mM), 100-(0.16 mM), 1,000-(1.6 mM) and 6,000-fold (10 mM) molar excess 4PP (FIGS. 7-9). […]

Data set [4] has as its target T2, deglycosylated rCE (Oryctolagus cuniculus, UniProt P12337).
T2 construct: made in house; host or cells: Spodoptera frugiperda Sf21 cells, baculovirus, secreted; then PNGase F treatment
T2 sequence (P12337 19-559): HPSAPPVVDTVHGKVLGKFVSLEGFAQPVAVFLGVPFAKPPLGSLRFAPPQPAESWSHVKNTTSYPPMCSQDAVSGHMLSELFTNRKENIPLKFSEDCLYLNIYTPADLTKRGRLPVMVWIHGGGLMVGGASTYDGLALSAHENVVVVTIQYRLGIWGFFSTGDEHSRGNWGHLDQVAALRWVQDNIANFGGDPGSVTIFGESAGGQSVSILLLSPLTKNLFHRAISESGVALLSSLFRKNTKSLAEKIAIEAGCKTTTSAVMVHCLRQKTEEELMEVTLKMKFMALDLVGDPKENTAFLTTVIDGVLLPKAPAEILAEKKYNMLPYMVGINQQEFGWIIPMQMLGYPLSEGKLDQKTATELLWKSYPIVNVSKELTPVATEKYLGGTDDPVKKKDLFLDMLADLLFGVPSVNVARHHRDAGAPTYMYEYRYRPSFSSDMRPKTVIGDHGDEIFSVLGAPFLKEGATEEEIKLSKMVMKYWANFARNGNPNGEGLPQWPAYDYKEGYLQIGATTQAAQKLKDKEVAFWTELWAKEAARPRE
Briefly: CD thermal denaturation of deglycosylated rCE in the presence of 4PP. Format: binding, rabbit. Here is the method:
as §1, §2

Data set [5] deals with the molecule itself. Briefly: X-ray crystal structure (self-association, homotrimer). Here is the method: Diffraction data were collected at Stanford Synchrotron Radiation Laboratory (SSRL) beamline 9-1, and were processed and reduced using MOSFILM (Leslie, (1992), Joint CCP4+ESF-EAMCB Newsletter on Protein Crystallography, No. 26.). Crystals were of space group P2₁, and contained six molecules in the asymmetric unit for both the tacrine and homatropine complexes. See FIG. 12, in which each hCE1 is depicted in a different color. The structures of hCE1 were determined by molecular replacement using the structure of rabbit carboxylesterase (rCE; RCSB Protein ID No. 1K4Y; Bencharit et al., (2002) Nat.Struct.Biol. 9: 337), also an aspect of the present invention, as a search model (81% sequence identity). Non-identical side chains were trimmed prior to rotation and translation function searches in AmoRe (Navaza & Saludjian, (1997) Methods Enzymol. 276A: 581-594). The structures were refined using torsion angle dynamics in CNS with the maximum likelihood function target, and included an overall anisotropic B-factor and a bulk solvent correction. […] Manual adjustments and rebuilding were performed using the program O (Jones et al., (1991) Acta Crystallogr. A 47: 110-119) and σA-weighted electron density maps (Read, (1986) Acta Crystallogr. A 42: 140-149). […]

hCE1, sequence (P23141 18-560 isoform P23141-3 limits assumed): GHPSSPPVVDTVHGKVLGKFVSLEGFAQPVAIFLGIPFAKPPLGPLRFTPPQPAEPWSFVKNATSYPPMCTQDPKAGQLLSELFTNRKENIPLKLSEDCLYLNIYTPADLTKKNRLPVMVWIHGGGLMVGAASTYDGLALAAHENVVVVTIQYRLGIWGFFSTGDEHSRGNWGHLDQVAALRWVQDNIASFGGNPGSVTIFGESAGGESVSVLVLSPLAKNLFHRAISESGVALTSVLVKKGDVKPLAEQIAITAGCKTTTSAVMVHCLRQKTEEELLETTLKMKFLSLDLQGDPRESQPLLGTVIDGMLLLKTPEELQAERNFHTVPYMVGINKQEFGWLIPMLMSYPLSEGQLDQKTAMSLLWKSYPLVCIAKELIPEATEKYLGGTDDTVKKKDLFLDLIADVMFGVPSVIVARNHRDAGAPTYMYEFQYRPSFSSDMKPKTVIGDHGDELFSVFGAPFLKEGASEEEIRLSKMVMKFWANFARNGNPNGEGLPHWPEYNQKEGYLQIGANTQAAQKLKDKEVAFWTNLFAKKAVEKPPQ

Regarding `CCc1c2c(nc3ccc(O)cc13)-c1cc3c(c(=O)n1C2)COC(=O)[C@]3(O)CC` [SN-38], the “share of the SN-38 generated by activation of CPT-11 that makes it to the tumor” value in data set [1] was approximately 2%.

With `Nc1c2c(nc3ccccc13)CCCC2` [tacrine, 1,2,3,4-tetrahydro-9-acridinamine], the “binding to hCE1” value in data set [2] was “binds effectively”.

Consider `C1CCN(C2CCNCC2)CC1` [4PP, 4-piperidino-piperidine], for which the “melting temperature (Tm) of wild type rCE” value in data set [3] (10- to 100-fold molar excess of 4PP (0.016-0.16 mM)) was 51 °C; in data set [3] (higher concentrations of 4PP (1.6 mM, 10 mM)), 54-55 °C. Also, the results for the “effect on thermal stability of deglycosylated rCE” value in data set [4] (high concentrations of 4PP) and in data set [4] (lower concentrations of 4PP) were “stabilization occurs only with high concentrations” and “destabilize the enzyme”, respectively.

B1: human carboxylesterase 1 (hCE1), 62 kDa C-terminally-truncated form lacking six C-terminal amino acids (enzyme)
chain: GHPSSPPVVDTVHGKVLGKFVSLEGFAQPVAIFLGIPFGKPPLGPLRFTPPQPAEPWSFVKNATSYPPMCTQDPKAGQLLSELFTNRKENIPLKLSEDCLYLNIYTPADLTKKNRLPVMVWIHGGGLMVGAASTYDGLALAAHENVVVVTIQYRLGIWGFFSTGDEHSRGNWGHLDQVAALRWVQDNIASFGGNPGSVTIFGESAGGESVSVLVLSPLAKNLFHRAISESGVALTSVLVKKGDVKPLAEQIAITAGCKTTTSAVMVHCLRQKTEEELLETTLKMKFLSLDLQGDPRESQPLLGTVIDGMLLLKTPEELQAERNFHTVPYMVGINKQEFGWLIPMLMSYPLSEGQLDQKTAMSLLWKSYPLVCIAKELIPEATEKYLGGTDDTVKKKDLFLDLIADVMFGVPSVIVARNHRDAGAPTYMYEFQYRPSFSSDMKPKTVIGDHGDELFSVFGAPFLKEGASEEEIRLSKMVMKFWANFARNGNPNGEGLPHWPEYNQKEGYLQIGANTQAAQKLKDKEVAFWTNLFAKKAVEKPPQT
modifications: N-linked glycans (added to the model in refinement; positions not stated for the crystallised protein)
notes: Expressed by baculovirus in Spodoptera frugiperda Sf21 cells and secreted into the culture media; crystallised with tacrine or homatropine; also called human CE; human CE1
Regarding B1, in data set [5], the binding result is listed as “binds”.

Source of the values: patent publication US20030235811A1, “Crystallized mammalian carboxylesterase polypeptide and screening methods employing same” (priority 2002, published 2003).
